Like-named read-outs stand apart in the source and are kept apart here.
What was measured:
CDK1/cyclin B [1] = test system: CDK1/cyclin B; design: method as in PMID 18698753; settings: previously reported; cited from earlier work
CK1δ/ε [2] = test system: CK1δ/ε; design: method as in PMID 18698753; settings: read-out: IC50 CK1, cited from earlier work
CDK5/p25 = target: T1, CDK5/p25 (Homo sapiens, UniProt Q00535); experiment: CDK5/p25 kinase assay ([γ-33P] ATP, histone H1); type: biochemical
T1 construct: made in house
T1 sequence (Q00535 whole entry): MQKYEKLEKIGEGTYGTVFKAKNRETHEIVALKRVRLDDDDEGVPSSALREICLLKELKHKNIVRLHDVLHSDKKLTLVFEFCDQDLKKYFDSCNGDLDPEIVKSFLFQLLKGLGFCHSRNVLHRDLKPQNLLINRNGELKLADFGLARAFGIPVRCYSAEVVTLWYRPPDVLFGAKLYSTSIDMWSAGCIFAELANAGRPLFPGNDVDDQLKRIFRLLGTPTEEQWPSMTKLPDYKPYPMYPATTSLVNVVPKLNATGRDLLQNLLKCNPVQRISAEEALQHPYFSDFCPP
T1 sequence (Q15078 99-307 partner limits assumed): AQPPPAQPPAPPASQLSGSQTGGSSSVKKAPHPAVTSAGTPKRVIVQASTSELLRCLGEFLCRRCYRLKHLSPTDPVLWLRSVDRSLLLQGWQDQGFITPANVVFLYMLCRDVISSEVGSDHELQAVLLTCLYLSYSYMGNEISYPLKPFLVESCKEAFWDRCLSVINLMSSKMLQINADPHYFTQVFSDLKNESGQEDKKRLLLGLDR
Method: (§1) CDK1/cyclin B (M phase starfish oocytes, native), CDK2/cyclin A (human, recombinant) and CDK5/p25 (human, recombinant) were prepared as previously described. […] ATP (3000 Ci/mmol; 10 mCi/mL) in a final volume of 30 µL. After 30 min incubation at 30 °C, 25 µL aliquots of supernatant were spotted onto 2.5 cm × 3 cm pieces of Whatman P81 phosphocellulose paper, and, 20 s later, the filters were washed five times (for at least 5 min each time) in a solution of 10 mL of phosphoric acid/liter of water. The wet filters were counted in the presence of 1 mL of ACS (Amersham, Pittsburgh, PA, USA) scintillation fluid.

Pf7G8 = experiment: [3H]hypoxanthine incorporation growth assay, Pf7G8; type: cell-based, Plasmodium falciparum; settings: for IC50: Plasmodium falciparum
Method: (§2) A selection of 15 molecules 4b–c, 10–13 representing the different 2,6,9-trisubstituted purine series, including newly synthesized products was screened as anti-malarial agents on two different P. falciparum strains, Pf3D7, a standard drug-sensitive African stain, and Pf7G8, a brazilian chloroquino-resistant strain (Figure 3). The compound activity was evaluated during the parasitic erythocytic cycle, by the means of a [^3H] hypoxanthine incorporation assay. It is directly correlated to parasite viability, as described in the experimental section.
(§3) At first, the activity of the fifteen compounds was screened at three different concentrations (10, 50 and 100 µM) on Pf3D7. Chloroquine which is not a kinase inhibitor, but which is the antimalarial reference drug was used as the positive control. […] Chloroquine was again used as a positive control.
(§4) Compounds were tested against synchronous ring-stage parasites of Pf3D7 and Pf7G8 strains. Drugs testing were carried out in 96-well microtiter plates. The chloroquine (CQ) diphosphate was purchased from Sigma (Lyon, France). […] For each assay, each drug dilution was analyzed in triplicate.
(§5) For the in vitro isotopic microtest, 200 µL of the suspension of synchronous parasitized red blood cells with >90% of the parasites at the ring stage (final parasitaemia, 0.3%; final haematocrit, 4%) per well were plated in 96-well plates that contained serial CQ or compounds concentrations. […] The plates were incubated at 37 °C, in an atmosphere of 5% O2, 5% CO2, and 90% N2 for 48 h. Immediately after incubation, plates were frozen and then thawed to lyse the erythrocytes. Cultures were harvested onto glass fiber filters and washed using a cell harvester (FilterMAT; Skatron Instruments, Dalsletta, Norway). The dried fiber filter papers were mixed with 2 mL of scintillation fluid (OptiScint; Perkin-Elmer, Waltham, UK). […] The initial value and the asymptotic result for high concentrations were fixed to 0% and 100%, respectively, available on the web.

CDK1/cyclin B [3] = experiment: CDK1/cyclin B kinase assay ([γ-33P] ATP, histone H1); type: biochemical, starfish; settings: Table A1; read-out: IC50 on HsCDKs HsCDK1
Pf3D7 = experiment: [3H]hypoxanthine incorporation growth assay, Pf3D7; type: cell-based, Plasmodium falciparum; settings: for IC50: Plasmodium falciparum
Method: as §2, §3, §4, §5

DYRK1A [4] = test system: DYRK1A; design: method as in PMID 17850214; settings: at 1 µM; cited from earlier work
[5] = design: method as in PMID 12809528; settings: cited from earlier work
GSK-3α/β = GSK-3α/β kinase assay (GS-1 peptide); settings: read-out: IC50 GSK-3αβ; 15 µM ATP; Table 1; >10 = no activity at 10 µM
Method: (§6) The effects on CDK1/cyclin B, CDK2/cyclin A, CDK5/p25, GSK-3αβ, CK1δ/ε and DYRK1A kinase activity are reported as the IC50 values calculated from dose-response curves. The inhibition was determined covering a range of concentrations of the compounds by means of a [γ-^33P] assay as described in the experimental section.
(§7) Controls were performed with appropriate dilutions of DMSO.
GSK-3α/β (porcine brain, native) was assayed, as described for CDK1 but in Buffer A and using a GSK-3 specific substrate (GS-1: [sequence]pEDEEE) (pS stands for phosphorylated serine).

CDK1/cyclin B [6] = experiment: CDK1/cyclin B kinase assay ([γ-33P] ATP, histone H1); type: biochemical, starfish; settings: 15 µM ATP, Table 1
Method: as §1

CDK2/cyclin A = target: T2, CDK2/cyclin A (Homo sapiens, UniProt P24941); experiment: CDK2/cyclin A kinase assay ([γ-33P] ATP, histone H1); type: biochemical; settings: 15 µM ATP, Table 1
T2 construct: made in house
Method: as §1

CK1δ/ε [7] = experiment: CK1δ/ε kinase assay (CKS peptide); settings: read-out: IC50 CK1δ/ε; 15 µM ATP; Table 1
Method: as §6, §7

DYRK1A [8] = target: DYRK1A (Homo sapiens, UniProt Q13627); experiment: DYRK1A kinase assay (Woodtide); type: biochemical; settings: 15 µM ATP; Table 1
CK1 = test system: CK1; design: method as in PMID 10662688; settings: cited from earlier work
N2A-APP659 cell model = test system: N2A-APP659 cell model; design: method as in PMID 18698753; settings: dose-dependent; cited from earlier work
[9] = Table A1, read-out: IC50 on HsCDKs HsCDK5
[10] = Table A1, N.I. = not inhibitor, read-out: IC50 on P. falciparum Strains Pf7G8
[11] = chloroquino-resistant strain, 48 h, Table 2, read-out: Growth IC50 Pf7G8
[12] = 48 h, drug-sensitive strain, 48 h, Table 2, read-out: Growth IC50 Pf3D7
[13] = Table A1, N.I. = not inhibitor, read-out: IC50 on P. falciparum Strains Pf3D7
[14] = CDK5/p25, 15 µM ATP, Table 1, read-out: IC50 CDK5

Row | SMILES | IC50 (CDK5/p25; [9]) | IC50 (CDK1/cyclin B [3]) | IC50 on P. falciparum Strains Pf7G8 (Pf7G8; Table A1, N.I. = not inhibitor) | IC50 on P. falciparum Strains Pf3D7 (Pf3D7; Table A1, N.I. = not inhibitor) | IC50 (CDK5/p25; [14]) | IC50 (GSK-3α/β) | IC50 (CDK1/cyclin B [6]) | IC50 (CK1δ/ε [7]) | further results
1 | CC(C)n1cnc2c(Nc3ccc(Br)cc3)nc(-c3ccncc3)nc21 [Compound 22] | 600 nM | 600 nM |  |  |  |  |  |  | IC50 (CDK1/cyclin B [1]): 590 nM; IC50 (CK1δ/ε [2]; previously reported): 80 nM; IC50 (Pf7G8; [10]): 990 nM; IC50 (Pf7G8; [11]): 990 nM; IC50 (Pf3D7; [12]): 1390 nM; IC50 (Pf3D7; [13]): 1390 nM
2 | CC[C@H](CO)Nc1nc(Nc2cccc(-c3cccnc3)c2)c2ncn(C(C)C)c2n1 [Compound 15] | 50 nM | 180 nM | N.I. | N.I. |  |  |  |  | 
3 | CC[C@H](CO)Nc1nc(NCc2ccccc2)c2ncn(C(C)C)c2n1 [Compound 1, (R)-roscovitine] |  |  |  |  |  |  |  |  | remaining DYRK1A kinase activity (DYRK1A [4]): 87%; maximal tolerated dose ([5]; human, daily oral dose): 2 g; oral bioavailability ([5]; humans, oral administration): good oral bioavailability
4 | CC(C)n1cnc2c(Nc3cccnc3)nc(Nc3ncccn3)nc21 [Compound 4c] |  | 3000 nM | N.I. | N.I. | 4300 nM | > 10000 nM | 3000 nM | > 10000 nM | IC50 (CDK2/cyclin A): 1800 nM; IC50 (DYRK1A [8]): 8000 nM
5 | NC1=NC(=O)/C(=C2\CCNC(=O)c3[nH]c(Br)cc32)N1 [hymenialdisine] |  |  |  |  |  |  |  |  | IC50 (CK1): 30 nM
6 | CC[C@H](CO)Nc1nc(Nc2cccc(-c3ccccn3)c2)c2ncn(C(C)C)c2n1 [Compound 3] |  |  |  |  | 80 nM | > 10000 nM | 220 nM | 10 nM | IC50 (CK1δ/ε [2]): 14 nM; amyloïd-β production (N2A-APP659 cell model): antagonizes amyloïd-β production
7 | CC[C@H](CO)Nc1nc(Nc2ccc(-c3cccnc3)nc2)c2ncn(C(C)C)c2n1 [Compound 10, (R)-2-(1-Hydroxybut-2-ylamino)-6-[6-(3-pyridyl)pyrid-3-ylamino]-9-iso-propylpurine] |  | 10 nM | N.I. | N.I. | 30 nM | > 10000 nM | 10 nM | 200 nM | 
8 | CC(C)n1cnc2c(Nc3cncnc3)nc(Nc3cncnc3)nc21 [Compound 5] |  |  |  |  | 400 nM |  |  |  | IC50 (CDK2/cyclin A): 200 nM
9 | CC[C@@H](CO)Nc1nc(Nc2cccc(-c3cccnc3)c2)c2ncn(C(C)C)c2n1 [Compound 12, (S)-2-(1-Hydroxybut-2-ylamino)-6-[3-(3-pyridyl)phenylamino]-9-iso-propylipurine] |  | 200 nM |  |  | 100 nM | > 10000 nM | 200 nM | 200 nM | IC50 (Pf7G8; [10]): 1550 nM; IC50 (Pf7G8; [11]): 1550 nM; IC50 (Pf3D7; [13]): 5370 nM
10 | CC[C@@H](CO)Nc1nc(Nc2cccc(-c3ccccn3)c2)c2ncn(C(C)C)c2n1 [Compound 11, (S)-2-(1-Hydroxybut-2-ylamino)-6-[3-(2-pyridyl)phenylamino]-9-iso-propylpurine] |  | 800 nM |  |  | 400 nM | > 10000 nM | 800 nM | 40 nM | IC50 (Pf7G8; [10]): 2060 nM; IC50 (Pf7G8; [11]): 2060 nM; IC50 (Pf3D7; [12]): 6530 nM; IC50 (Pf3D7; [13]): 6530 nM
11 | CCN(CC)CCCC(C)Nc1ccnc2cc(Cl)ccc12 (centres unmarked) [Chloroquine, chloroquine, reference compound] |  |  |  |  |  |  |  |  | IC50 (Pf7G8; 48 h, read-out: Growth IC50 Pf7G8): 180 nM; IC50 (Pf3D7; 48 h, read-out: Growth IC50 Pf3D7): 30 nM
12 | CC[C@@H](CO)Nc1nc(Nc2ccc(-c3ccccn3)cc2)c2ncn(C(C)C)c2n1 [Compound 13, (S)-2-(1-Hydroxybut-2-ylamino)-6-[4-(2-pyridyl)phenylamino]-9-iso-propylpurine] |  | 200 nM | N.I. | N.I. |  | > 10000 nM | 200 nM | 500 nM | IC50 (CDK2/cyclin A): 200 nM
13 | CC(C)n1cnc2c(Nc3ccccn3)nc(Nc3ncccn3)nc21 [Compound 4b] | > 10000 nM |  | N.I. | N.I. | > 10000 nM | > 10000 nM |  | > 10000 nM | IC50 (DYRK1A [8]): 8000 nM
14 | CC[C@H](CO)Nc1nc(Nc2ccc(-c3cncnc3)cc2)c2ncn(C(C)C)c2n1 [Compound 21] | 60 nM | 40 nM |  |  |  |  |  |  | IC50 (Pf7G8; [10]): 690 nM; IC50 (Pf7G8; [11]): 690 nM; IC50 (Pf3D7; [12]): 3050 nM; IC50 (Pf3D7; [13]): 3050 nM
15 | CC(C)n1cnc2c(Nc3ccc(Br)cc3)nc(-c3cccnc3)nc21 [Compound 18] | 730 nM | 410 nM | N.I. | N.I. |  |  |  |  | IC50 (CDK1/cyclin B [1]): 410 nM; IC50 (CK1δ/ε [2]; previously reported): 100 nM
16 | CC(C)n1cnc2c(Nc3ccncc3)nc(Nc3ncccn3)nc21 [Compound 4d] |  |  |  |  | 7000 nM | > 10000 nM | 9300 nM | 2800 nM | IC50 (DYRK1A [8]): 5200 nM
17 | CC(C)n1cnc2c(Nc3cnccn3)nc(Nc3cnccn3)nc21 [Compound 6] |  |  |  |  |  | > 10000 nM |  | 1100 nM | IC50 (CDK2/cyclin A): 2800 nM; IC50 (DYRK1A [8]): 500 nM
18 | CC(C)n1cnc2c(Nc3cccc(-c4cccnc4)c3)nc(Cl)nc21 [Compound 17] | 50 nM | 180 nM | N.I. | N.I. |  |  |  |  | 
19 | CC[C@@H](CO)Nc1nc(Nc2ccc(-c3ncccn3)cc2)c2ncn(C(C)C)c2n1 [Compound 19] | 270 nM | 500 nM |  |  |  |  |  |  | IC50 (Pf7G8; [10]): 1820 nM; IC50 (Pf7G8; [11]): 1820 nM; IC50 (Pf3D7; [12]): 7130 nM; IC50 (Pf3D7; [13]): 7130 nM
20 | CC[C@@H](CO)Nc1nc(Nc2ccc(-c3cncnc3)cc2)c2ncn(C(C)C)c2n1 [Compound 16] | 100 nM | 180 nM | N.I. | N.I. |  |  |  |  | 
21 | CC(C)n1cnc2c(Nc3ccc(Br)cc3)nc(Nc3ncccn3)nc21 [Compound 4a] |  |  |  |  | 1000 nM | 1000 nM |  | 1000 nM | IC50 (DYRK1A [8]): 3000 nM
22 | CC[C@@H](CO)Nc1nc(Nc2cccc(-c3ncccn3)c2)c2ncn(C(C)C)c2n1 [Compound 20] | 500 nM | 700 nM |  |  |  |  |  |  | IC50 (Pf7G8; [10]): 4660 nM; IC50 (Pf7G8; [11]): 4660 nM; IC50 (Pf3D7; [12]): 22200 nM; IC50 (Pf3D7; [13]): 22200 nM
23 | CC[C@H](CO)Nc1nc(Nc2ccc(-c3ccccn3)cc2)c2ncn(C(C)C)c2n1 [Compound 14] | 30 nM | 50 nM | N.I. | N.I. |  |  |  |  | 
